Reference: patent US20220348549A1 (Hoffmann-La Roche Inc., priority 2019, published 2022)

These compounds were tested on HBV cccDNA (HBeAg level in HepDES19 cells) (assay: Engineered HepDES19 primary screen assay (HBeAg ELISA as surrogate marker for cccDNA)). Conditions: Hepatitis B virus, HepDES19, 120 h.
Format: cell-based
Source text: The assay was employed to screen for novel HBV cccDNA inhibitors. HepDES19 is a HBV cccDNA-producing cell line. In this cell line, HBeAg in the cell culture supernatant as surrogate marker, as HBeAg production depends on cccDNA level and activity. HepDES19 is an engineered cell line which contains a 1.1 unit length HBV genome, and pgRNA transcription from the transgene is controlled by Tetracycline (Tet). In the absence of Tet, pgRNA transcription will be induced, but HBV e antigen (HBeAg) could not be produced from this pgRNA due to very short leader sequence before the HBeAg start codon and the start codon is disrupted. Only after cccDNA is formed, the missing leader sequence and start codon mutation would be restored from the 3′-terminal redundancy of pgRNA, and then HBeAg could be synthesized. Therefore, HBeAg could be used as a surrogate marker for cccDNA (Zhou, T. et al., Antiviral Res. (2006), 72(2), 116-124; Guo, H. et al., J. Virol. (2007), 81(22), 12472-12484).
HepDES19 cells were seeded at 2×10^6 cells per T150 flask and cultured with the culture medium (Dulbecco's Modified Eagle Medium: Nutrient Mixture F-12 [DMEM-F12, Gibco Cat. 11320-82], 10% Fetal Bovine Serum [FBS, Clontech Cat. 631101], 0.1 mM Non-Essential Amino Acids Solution [NEAA, Gibco Cat. 11140-050], 50 μg/mL Penicillin-Streptomycin [PS, Invitrogen Cat. 15140-163], 500 μg/mL Geneticin [G418, Invitrogen Cat. 10131-027]) containing 3 μg/mL Tet (Sigma, Cat. 87128) for 5 days. Cells were then seeded at 4×10^6 cells per T150 in the same culture medium as described above in the absence of Tet for 8 days. Cells were then harvested and frozen at density of 2×10^6 cells per mL. For compound testing, the frozen cells were thawed and seeded into 96-well plates at a density of 6×10^4 cells per well. At 24 hrs after seeding, half log serial dilutions of compounds made with Dimethyl sulfoxide (DMSO, Sigma, Cat. D2650) were further diluted with the same culture medium as described above before they were added to the cells to reach desired final compound concentrations and 1% DMSO concentration. Plates were then incubated at 37° C. for another 5 days before measurement of HBeAg level and cell viability. Intracellular HBeAg level were measured with enzyme-linked immunosorbent assay (ELISA) kit (Shanghai Kehua Diagnostic Medical Products Co., Ltd). Cell viability was assessed using Cell Counting Kit-8 (Donjindo, Cat. CK04-20). IC50 values were derived from the dose-response curve using 4 parameter logistic curve fit method.
The compounds of the present invention were tested for their capacity to inhibit extracellular HBeAg level as described herein.

Structure (SMILES)	IC50 [µM]
O=C(c1nc(-c2ccc(Br)cc2)nc2cc(C(F)(F)F)ccc12)N1CCOCC1 [Example 44, [2-(4-Bromophenyl)-7-(trifluoromethyl)quinazolin-4-yl]-morpholino-methanone]	8.7
O=C(O)c1nc(-c2ccc(Cl)nc2)nc2c(Cl)cccc12 [Example 45, 8-Chloro-2-(6-chloro-3-pyridyl)quinazoline-4-carboxylic acid]	0.66
NC(=O)c1nc(-c2ccc(Cl)nc2)nc2c(Cl)cccc12 [Example 46, 8-chloro-2-(6-chloro-3-pyridyl)quinazoline-4-carboxamide]	0.11
CCOc1ccc(-c2nc(C(=O)O)c3cccc(Cl)c3n2)cn1 [Example 48, 8-Chloro-2-(6-ethoxy-3-pyridyl)quinazoline-4-carboxylic acid]	7.57
O=C(O)c1nc(-c2ccc(N3CCCC3)nc2)nc2c(Cl)cccc12 [Example 49, 8-Chloro-2-(6-pyrrolidin-1-yl-3-pyridyl)quinazoline-4-carboxylic acid]	11
O=C(O)c1nc(-c2ccc(OCCO[C@H]3C[C@@H](C(=O)O)C3)nc2)nc2c(Cl)cccc12 [Example 50, cis-2-[6-[2-(3-Carboxycyclobutoxy)ethoxy]-3-pyridyl]-8-chloro-quinazoline-4-carboxylic acid]	15
O=C(O)COCCOc1ccc(-c2ncc3cccc(Cl)c3n2)cn1 [Example 51, 2-[2-[[5-(8-Chloroquinazolin-2-yl)-2-pyridyl]oxy]ethoxy]acetic acid]	4.86
O=C(NCCO)c1nc(-c2ccc(Cl)nc2)nc2c(Cl)cccc12 [Example 52, 8-Chloro-2-(6-chloro-3-pyridyl)-N-(2-hydroxyethyl)quinazoline-4-carboxamide]	0.16
O=C(c1nc(-c2ccc(Cl)nc2)nc2c(Cl)cccc12)N1CCOCC1 [Example 53, [8-Chloro-2-(6-chloro-3-pyridyl)quinazolin-4-yl]-morpholino-methanone]	0.083
O=C(O)[C@H]1C[C@@H](OCCOc2ccc(-c3nc(O)c4cccc(Cl)c4n3)cn2)C1 [Example 54, cis-3-[2-[[5-(8-Chloro-4-hydroxy-quinazolin-2-yl)-2-pyridyl]oxy]ethoxy]cyclobutanecarboxylic acid]	3.42
COc1nc(-c2ccc(OCCOC3CC(C(=O)O)C3)cc2)nc2c(Cl)cccc12 (stereo not drawn) [Example 55, 3-(2-(4-(8-Chloro-4-methoxyquinazolin-2-yl)phenoxy)ethoxy)cyclobutanecarboxylic acid]	0.026
O=C(O)C1CC(OCCOc2ccc(-c3nc(C(F)(F)F)c4cccc(Cl)c4n3)cc2)C1 (stereo not drawn) [Example 56, 3-[2-[4-[8-chloro-4-(trifluoromethyl)quinazolin-2-yl]phenoxy]ethoxy]cyclobutanecarboxylic acid]	7.86
